According to PubChem BioAssay (NCI):
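These data come from cells grown in 96-well plates and exposed to compound for 48 hours at five concentrations. GI50 is the concentration that inhibits growth by half. TGI: total growth inhibition.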

Key:
Assay in all cases: DTP human tumour cell line panel, 48 h
786-0 renal = tested on: 786-0 renal
A498 renal = tested on: A498 renal
A549 NSCLC = tested on: A549 NSCLC
ACHN renal = tested on: ACHN renal
BT-549 breast = tested on: BT-549 breast
CAKI-1 renal = tested on: CAKI-1 renal
COLO 205 colon = tested on: COLO 205 colon
DU-145 prostate = tested on: DU-145 prostate
EKVX NSCLC = tested on: EKVX NSCLC
HCT-116 colon = tested on: HCT-116 colon
HCT-15 colon = tested on: HCT-15 colon
HL-60(TB) leukemia = tested on: HL-60(TB) leukemia
HOP-62 NSCLC = tested on: HOP-62 NSCLC
HOP-92 NSCLC = tested on: HOP-92 NSCLC
HS 578T breast = tested on: HS 578T breast
HT29 colon = tested on: HT29 colon
IGROV1 ovarian = tested on: IGROV1 ovarian
K-562 leukemia = tested on: K-562 leukemia
KM12 colon = tested on: KM12 colon
LOX IMVI melanoma = tested on: LOX IMVI melanoma
M14 melanoma = tested on: M14 melanoma
MALME-3M melanoma = tested on: MALME-3M melanoma
MCF7 breast = tested on: MCF7 breast
MDA-MB-231 breast = tested on: MDA-MB-231 breast
MDA-MB-435 = tested on: MDA-MB-435
NCI-H226 lung = tested on: NCI-H226 lung
NCI-H23 lung = tested on: NCI-H23 lung
NCI-H460 lung = tested on: NCI-H460 lung
NCI-H522 lung = tested on: NCI-H522 lung
NCI/ADR-RES ovarian = tested on: NCI/ADR-RES ovarian
OVCAR-3 ovarian = tested on: OVCAR-3 ovarian
OVCAR-4 ovarian = tested on: OVCAR-4 ovarian
OVCAR-5 ovarian = tested on: OVCAR-5 ovarian
OVCAR-8 ovarian = tested on: OVCAR-8 ovarian
PC-3 prostate = tested on: PC-3 prostate
RXF 393 renal = tested on: RXF 393 renal
SF-268 CNS = tested on: SF-268 CNS
SF-295 CNS = tested on: SF-295 CNS
SF-539 CNS = tested on: SF-539 CNS
SK-MEL-2 melanoma = tested on: SK-MEL-2 melanoma
SK-MEL-28 melanoma = tested on: SK-MEL-28 melanoma
SK-OV-3 ovarian = tested on: SK-OV-3 ovarian
SN12C renal = tested on: SN12C renal
SNB-19 CNS = tested on: SNB-19 CNS
SNB-75 CNS = tested on: SNB-75 CNS
SW-620 colon = tested on: SW-620 colon
T-47D breast = tested on: T-47D breast
TK-10 renal = tested on: TK-10 renal
U251 CNS = tested on: U251 CNS
UACC-257 melanoma = tested on: UACC-257 melanoma
UACC-62 melanoma = tested on: UACC-62 melanoma
UO-31 renal = tested on: UO-31 renal
CCRF-CEM leukemia = tested on: CCRF-CEM leukemia
HCC-2998 colon = tested on: HCC-2998 colon
MOLT-4 leukemia = tested on: MOLT-4 leukemia
RPMI-8226 leukemia = tested on: RPMI-8226 leukemia
SK-MEL-5 melanoma = tested on: SK-MEL-5 melanoma
SR leukemia = tested on: SR leukemia

## O=C1c2ccccc2-c2c1c1ccccc1c(=O)n2CCCNCCn1c2c(c3ccccc3c1=O)C(=O)c1ccccc1-2
786-0 renal
  GI50: 1.98 µM
  TGI: 9.64 µM
A498 renal
  GI50: 12.7 µM
  TGI: 25.3 µM
A549 NSCLC
  GI50: 13.5 µM
  TGI: 26.3 µM
ACHN renal
  GI50: 12.3 µM
  TGI: 24.8 µM
BT-549 breast
  GI50: 10.8 µM
  TGI: 28.6 µM
CAKI-1 renal
  GI50: 14.3 µM
  TGI: 28.7 µM
COLO 205 colon
  GI50: 36.2 µM
  TGI: > 100 µM
DU-145 prostate
  GI50: 1.89 µM
  TGI: 12 µM
EKVX NSCLC
  GI50: 12.5 µM
  TGI: 27.2 µM
HCT-116 colon
  GI50: 1.05 µM
  TGI: 3.13 µM
HCT-15 colon
  GI50: 2.74 µM
  TGI: 13 µM
HL-60(TB) leukemia
  GI50: 34.6 µM
  TGI: 96.8 µM
HOP-62 NSCLC
  GI50: 9.69 µM
  TGI: 25.3 µM
HOP-92 NSCLC
  GI50: 14.1 µM
  TGI: 28.1 µM
HS 578T breast
  GI50: 16.5 µM
  TGI: 64.6 µM
HT29 colon
  GI50: 2.42 µM
  TGI: 10 µM
IGROV1 ovarian
  GI50: 2.63 µM
  TGI: 32.2 µM
K-562 leukemia
  GI50: 19.2 µM
  TGI: 42.3 µM
KM12 colon
  GI50: 2.32 µM
  TGI: > 100 µM
LOX IMVI melanoma
  GI50: 0.0855 µM
  TGI: 3.16 µM
M14 melanoma
  GI50: 2.8 µM
  TGI: 10.9 µM
MALME-3M melanoma
  GI50: 22.1 µM
  TGI: 40.3 µM
MCF7 breast
  GI50: 3.47 µM
  TGI: 13.8 µM
MDA-MB-231 breast
  GI50: 2 µM
  TGI: 9.25 µM
MDA-MB-435
  GI50: 2.24 µM
  TGI: 6.11 µM
NCI-H226 lung
  GI50: 4.59 µM
  TGI: 20.7 µM
NCI-H23 lung
  GI50: 2.25 µM
  TGI: 11.6 µM
NCI-H460 lung
  GI50: 3.02 µM
  TGI: 17.6 µM
NCI-H522 lung
  GI50: 14.6 µM
  TGI: 48.1 µM
NCI/ADR-RES ovarian
  GI50: 11.3 µM
  TGI: 25.9 µM
OVCAR-3 ovarian
  GI50: 8.82 µM
  TGI: 21.1 µM
OVCAR-4 ovarian
  GI50: 11.5 µM
  TGI: 24.9 µM
OVCAR-5 ovarian
  GI50: 14.9 µM
  TGI: 28.1 µM
OVCAR-8 ovarian
  GI50: 2.73 µM
  TGI: 16.6 µM
PC-3 prostate
  GI50: 2.43 µM
  TGI: 10.5 µM
RXF 393 renal
  GI50: 2.29 µM
  TGI: 13.9 µM
SF-268 CNS
  GI50: 7.6 µM
  TGI: 26.5 µM
SF-295 CNS
  GI50: 7.77 µM
  TGI: 27.5 µM
SF-539 CNS
  GI50: 14.6 µM
  TGI: 27.8 µM
SK-MEL-2 melanoma
  GI50: 28.2 µM
  TGI: 96.9 µM
SK-MEL-28 melanoma
  GI50: 16 µM
  TGI: 38 µM
SK-OV-3 ovarian
  GI50: 19.2 µM
  TGI: > 100 µM
SN12C renal
  GI50: 10.9 µM
  TGI: 22.9 µM
SNB-19 CNS
  GI50: 2.48 µM
  TGI: 11.6 µM
SNB-75 CNS
  GI50: 11.8 µM
  TGI: 32.2 µM
SW-620 colon
  GI50: 2.23 µM
  TGI: > 100 µM
T-47D breast
  GI50: 17.8 µM
  TGI: 34.6 µM
TK-10 renal
  GI50: 3.8 µM
  TGI: 15.8 µM
U251 CNS
  GI50: 1.61 µM
  TGI: 3.29 µM
UACC-257 melanoma
  GI50: 17.9 µM
  TGI: 35 µM
UACC-62 melanoma
  GI50: 5.04 µM
  TGI: 19.3 µM
UO-31 renal
  TGI: 17.3 µM

## Cc1cc2c(-c3nc4ccccn4c3N)c(O)c(O)cc2c(O)c1-c1c(C)cc2c(-c3nc4ccccn4c3N)c(O)c(O)cc2c1O
786-0 renal
  GI50: 2.82 µM
  TGI: > 25 µM
A549 NSCLC
  GI50: 0.688 µM
  TGI: > 25 µM
ACHN renal
  GI50: 1.63 µM
  TGI: > 25 µM
BT-549 breast
  GI50: 0.145 µM
  TGI: > 25 µM
CCRF-CEM leukemia
  GI50: 0.497 µM
  TGI: > 25 µM
COLO 205 colon
  GI50: 1.07 µM
  TGI: > 25 µM
EKVX NSCLC
  GI50: 0.965 µM
  TGI: > 25 µM
HCC-2998 colon
  GI50: 1.59 µM
  TGI: > 25 µM
HCT-116 colon
  GI50: 0.163 µM
  TGI: > 25 µM
HCT-15 colon
  GI50: 0.58 µM
  TGI: > 25 µM
HL-60(TB) leukemia
  GI50: 1.64 µM
  TGI: > 25 µM
HOP-62 NSCLC
  GI50: 1.15 µM
  TGI: > 25 µM
HOP-92 NSCLC
  GI50: 0.65 µM
  TGI: 2.29 µM
HS 578T breast
  GI50: 0.797 µM
  TGI: > 25 µM
HT29 colon
  GI50: 0.979 µM
  TGI: > 25 µM
IGROV1 ovarian
  GI50: 1.36 µM
  TGI: > 25 µM
K-562 leukemia
  GI50: 1.02 µM
  TGI: > 25 µM
KM12 colon
  GI50: 0.227 µM
  TGI: > 25 µM
LOX IMVI melanoma
  GI50: 0.582 µM
  TGI: > 25 µM
M14 melanoma
  GI50: 1.18 µM
  TGI: > 25 µM
MALME-3M melanoma
  GI50: 0.81 µM
  TGI: > 25 µM
MCF7 breast
  GI50: 0.606 µM
  TGI: > 25 µM
MDA-MB-231 breast
  GI50: 3.11 µM
  TGI: > 25 µM
MDA-MB-435
  GI50: 0.716 µM
  TGI: > 25 µM
MOLT-4 leukemia
  GI50: 1.01 µM
  TGI: > 25 µM
NCI-H226 lung
  GI50: 1.44 µM
  TGI: > 25 µM
NCI-H23 lung
  GI50: 0.543 µM
  TGI: > 25 µM
NCI-H460 lung
  GI50: 0.103 µM
  TGI: 3.11 µM
NCI-H522 lung
  GI50: 0.625 µM
  TGI: 4.88 µM
NCI/ADR-RES ovarian
  GI50: 4.49 µM
  TGI: > 25 µM
OVCAR-3 ovarian
  GI50: 1.36 µM
  TGI: > 25 µM
OVCAR-4 ovarian
  GI50: 4.85 µM
  TGI: > 25 µM
OVCAR-5 ovarian
  GI50: 1.69 µM
  TGI: > 25 µM
OVCAR-8 ovarian
  GI50: 0.975 µM
  TGI: > 25 µM
PC-3 prostate
  GI50: 0.692 µM
  TGI: > 25 µM
RPMI-8226 leukemia
  GI50: 0.661 µM
  TGI: > 25 µM
RXF 393 renal
  GI50: 0.682 µM
  TGI: 18 µM
SF-268 CNS
  GI50: 0.653 µM
  TGI: > 25 µM
SF-539 CNS
  GI50: 0.707 µM
  TGI: 20.9 µM
SK-MEL-2 melanoma
  GI50: 0.961 µM
  TGI: 23.4 µM
SK-MEL-28 melanoma
  GI50: 1.16 µM
  TGI: > 25 µM
SK-MEL-5 melanoma
  GI50: 0.554 µM
  TGI: 1.66 µM
SK-OV-3 ovarian
  GI50: 0.805 µM
  TGI: 6.03 µM
SN12C renal
  GI50: 0.82 µM
  TGI: > 25 µM
SNB-19 CNS
  GI50: 0.661 µM
  TGI: > 25 µM
SNB-75 CNS
  GI50: 1.02 µM
  TGI: > 25 µM
SR leukemia
  GI50: 1.96 µM
  TGI: > 25 µM
SW-620 colon
  GI50: 0.988 µM
  TGI: > 25 µM
T-47D breast
  GI50: 0.502 µM
  TGI: > 25 µM
TK-10 renal
  GI50: 1.51 µM
  TGI: > 25 µM
U251 CNS
  GI50: 0.273 µM
  TGI: > 25 µM
UACC-257 melanoma
  GI50: 2.9 µM
  TGI: > 25 µM
UACC-62 melanoma
  GI50: 0.723 µM
  TGI: 7.05 µM
UO-31 renal
  GI50: 1.12 µM
  TGI: > 25 µM
